From patent publication US10633407B2, “14-membered ketolides and methods of their preparation and use” (President and Fellows of Harvard College, priority 2014, dated 2020)
Converted amounts (≈) assume the structure as drawn.

Legend:
Test in all cases: CLSI broth dilution MIC determination
Format in all cases: cell-based
[1] = test system: A. baumannii imipenem-resistant; details: Gram-negative
[2] = test system: P. aeruginosa ATCC 27853; details: P. aeruginosa ATCC 27853; Gram-negative
[3] = test system: E. faecalis Vancomycin-resistant; details: E. faecalis Vancomycin-resistant; Gram-positive
[4] = test system: K. pneumoniae ATCC 10031; details: K. pneumoniae ATCC 10031; Gram-negative
[5] = test system: A. baumannii chromosomal class C; details: Gram-negative
[6] = test system: P. aeruginosa HPA101-1477; details: Gram-negative
[7] = test system: K. pneumoniae SHV-12; details: Gram-negative
[8] = test system: E. faecalis ATCC 29212; details: E. faecalis ATCC 29212; Gram-positive
[9] = test system: H. influenzae Erythro >4, Azithro 1; details: H. influenzae Erythro >4, Azithro 1; Gram-negative
Source text: MIC data was collected for the novel macrolides that this platform has produced against over 21 unique strains of B. subtilis, E. coli, S. aureus, S. pneumoniae, and H. influenzae, including several multidrug-resistant strains, with a special focus on macrolide resistant mechanisms (vide supra). […] CLSI standard procedures for broth dilution MIC determination were used. […] These genotypes can be constitutive or inducible.

[10] = test system: K. pneumoniae TEM-10; details: Gram-negative
[11] = test system: S. aureus USA600, GISA; details: S. aureus USA600, GISA; Gram-positive
Summary of the method: (§1)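 Compounds are serially diluted in broth per CLSI standard methods to give the MIC; azithromycin and solithromycin act as comparator macrolides in many cases, and resistance genotypes may be inducible or constitutive.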

[12] = test system: S. pneumoniae ATCC 49619; details: S. pneumoniae ATCC 49619; Gram-positive
Summary of the method: as §1

[13] = test system: E. coli CTX-M-14; details: Gram-negative
Summary of the method: as §1

[14] = test system: E. coli NDM-1; details: Gram-negative
Summary of the method: as §1

[15] = test system: S. pneumoniae mef A genotype (second strain so labelled); details: Gram-positive
Summary of the method: as §1

[16] = test system: S. aureus MRSA: USA300; details: S. aureus MRSA: USA300; Gram-positive
Summary of the method: as §1

[17] = test system: E. coli ATCC 25922; details: E. coli ATCC 25922; Gram-negative
Summary of the method: as §1

[18] = test system: S. aureus ATCC 29213; details: S. aureus ATCC 29213; Gram-positive
Summary of the method: as §1

[19] = test system: E. coli TEM-1; details: E. coli TEM-1; Gram-negative
Summary of the method: as §1

[20] = test system: S. aureus MRSA: USA100; details: S. aureus MRSA: USA100; Gram-positive
Summary of the method: as §1

[21] = test system: S. aureus erm A genotype; details: S. aureus erm A genotype; Gram-positive
Summary of the method: as §1

[22] = test system: S. pneumoniae erm B + mef A genotype; details: S. pneumoniae erm B + mef A genotype; Gram-positive
Summary of the method: as §1

[23] = test system: H. influenzae ATCC49247; details: Gram-negative
Summary of the method: as §1

[24] = test system: A. baumannii ATCC 19606; details: A. baumannii ATCC 19606; Gram-negative
[25] = test system: S. pyogenes ATCC 19615; details: S. pyogenes ATCC 19615; Gram-positive
[26] = test system: K. pneumoniae KPC-2; details: Gram-negative
[27] = test system: A. baumannii IMP-4; details: Gram-negative
[28] = test system: S. pyogenes Macrolide-resistant; details: S. pyogenes Macrolide-resistant; Gram-positive

`CC[C@H]1OC(=O)[C@@](C)(F)C(=O)[C@H](C)[C@@H](O[C@@H]2OC(C)CC(N(C)C)C2O)[C@](C)(OC)C[C@@H](C)C(=O)[C@H](C)[C@H]2N(C/C=C/Cn3nnc(-c4ccccn4)n3)C(=O)O[C@]12C` (stereo partly shown) [FSM-100389] was tested, and the MIC [1] was 16 µg/mL (≈ 19.3 µM), the MIC [2] was > 32 µg/mL and the MIC [3] was > 32 µg/mL. The MIC [4] was 4 µg/mL (≈ 4.82 µM), the MIC [5] was 32 µg/mL (≈ 38.6 µM) and the MIC [6] was > 32 µg/mL. For the same compound, the MIC [7] was > 32 µg/mL, the MIC [8] was < 0.0312 µg/mL and the MIC [9] was 1 µg/mL (≈ 1.2 µM). For the same compound, the MIC [10] was > 32 µg/mL, the MIC [11] was > 32 µg/mL and the MIC [12] was < 0.0312 µg/mL. The MIC [13] was > 32 µg/mL, the MIC [14] was > 32 µg/mL and the MIC [15] was < 0.0312 µg/mL. For the same compound, the MIC [16] was 2 µg/mL (≈ 2.41 µM), the MIC [17] was 32 µg/mL (≈ 38.6 µM) and the MIC [18] was < 0.0312 µg/mL. For the same compound, the MIC [19] was 32 µg/mL (≈ 38.6 µM), the MIC [20] was > 32 µg/mL and the MIC [21] was > 32 µg/mL. For the same compound, the MIC [22] was 0.0625 µg/mL, the MIC [23] was 1 µg/mL (≈ 1.2 µM) and the MIC [24] was 16 µg/mL (≈ 19.3 µM). For the same compound, the MIC [25] was < 0.0312 µg/mL, the MIC [26] was > 32 µg/mL and the MIC [27] was > 32 µg/mL. The MIC [28] was < 0.0312 µg/mL.
In the case of `CC[C@H]1OC(=O)[C@H](C)C(=O)[C@H](C)[C@@H](O[C@@H]2OC(C)CC(N(C)C)C2O)[C@](C)(OC)C[C@@H](C)C(=O)[C@H](C)[C@H]2N(C/C=C\Cn3cc(-c4cccc(N)c4)nn3)C(=O)O[C@]12C` (stereo partly shown) [FSM-100423], the MIC [1] is reported as 32 µg/mL (≈ 38.8 µM), the MIC [2] is reported as > 32 µg/mL and the MIC [3] is reported as > 32 µg/mL. For the same compound, the MIC [4] was 16 µg/mL (≈ 19.4 µM), the MIC [5] was 32 µg/mL (≈ 38.8 µM) and the MIC [6] was > 32 µg/mL. For the same compound, the MIC [7] was > 32 µg/mL, the MIC [8] was < 0.0312 µg/mL and the MIC [9] was 4 µg/mL (≈ 4.85 µM). For the same compound, the MIC [10] was > 32 µg/mL, the MIC [11] was > 32 µg/mL and the MIC [12] was < 0.0312 µg/mL. For the same compound, the MIC [13] was > 32 µg/mL, the MIC [14] was > 32 µg/mL and the MIC [15] was < 0.0312 µg/mL. For the same compound, the MIC [16] was > 32 µg/mL, the MIC [17] was > 32 µg/mL and the MIC [18] was 0.125 µg/mL (≈ 0.152 µM). For the same compound, the MIC [19] was > 32 µg/mL, the MIC [20] was > 32 µg/mL and the MIC [21] was > 32 µg/mL. It also gave an MIC [22] of 0.0625 µg/mL, an MIC [23] of 2 µg/mL (≈ 2.42 µM) and an MIC [24] of 32 µg/mL (≈ 38.8 µM). For the same compound, the MIC [25] was < 0.0312 µg/mL, the MIC [26] was > 32 µg/mL and the MIC [27] was > 32 µg/mL. For the same compound, the MIC [28] was < 0.0312 µg/mL.
For `CC[C@H]1OC(=O)[C@H](C)C(=O)[C@H](C)[C@@H](O[C@@H]2OC(C)CC(N(C)C)C2O)[C@](C)(OC)C[C@@H](C)C(=O)[C@H](C)[C@H]2N(CC3CC3Cn3cc(-c4cccc(N)c4)nn3)C(=O)O[C@]12C` (stereo partly shown) [FSM-100429], the MIC [1] was 32 µg/mL (≈ 38.1 µM), the MIC [2] was > 32 µg/mL and the MIC [3] was > 32 µg/mL. For the same compound, the MIC [4] was 32 µg/mL (≈ 38.1 µM), the MIC [5] was 32 µg/mL (≈ 38.1 µM) and the MIC [6] was > 32 µg/mL. For the same compound, the MIC [7] was > 32 µg/mL, the MIC [8] was < 0.0312 µg/mL and the MIC [9] was > 32 µg/mL. The MIC [10] was > 32 µg/mL, the MIC [11] was > 32 µg/mL and the MIC [12] was < 0.0312 µg/mL. For the same compound, the MIC [13] was > 32 µg/mL, the MIC [14] was > 32 µg/mL and the MIC [15] was 0.0625 µg/mL (≈ 0.0745 µM). The MIC [16] was > 32 µg/mL, the MIC [17] was > 32 µg/mL and the MIC [18] was 0.125 µg/mL (≈ 0.149 µM). The MIC [19] was > 32 µg/mL, the MIC [20] was > 32 µg/mL and the MIC [21] was > 32 µg/mL. The MIC [22] was > 32 µg/mL, the MIC [23] was > 32 µg/mL and the MIC [24] was > 32 µg/mL. For the same compound, the MIC [25] was < 0.0312 µg/mL, the MIC [26] was > 32 µg/mL and the MIC [27] was > 32 µg/mL. For the same compound, the MIC [28] was < 0.0312 µg/mL.
For `CC[C@H]1OC(=O)[C@@](C)(F)C(=O)[C@H](C)[C@@H](O[C@@H]2OC(C)CC(N(C)C)C2O)[C@](C)(OC)C[C@@H](C)C(=O)[C@H](C)[C@H]2N(C/C=C\Cn3cc(-c4cccc(N)c4)nn3)C(=O)O[C@]12C` (stereo partly shown) [FSM-100431], the MIC [1] was 16 µg/mL (≈ 19 µM), the MIC [2] was > 32 µg/mL and the MIC [3] was > 32 µg/mL. For the same compound, the MIC [4] was 32 µg/mL (≈ 38 µM), the MIC [5] was 8 µg/mL (≈ 9.49 µM) and the MIC [6] was > 32 µg/mL. For the same compound, the MIC [7] was > 32 µg/mL, the MIC [8] was < 0.0312 µg/mL and the MIC [9] was > 32 µg/mL. The MIC [10] was > 32 µg/mL, the MIC [11] was > 32 µg/mL and the MIC [12] was < 0.0312 µg/mL. The MIC [13] was > 32 µg/mL, the MIC [14] was > 32 µg/mL and the MIC [15] was < 0.0312 µg/mL. The MIC [16] was > 32 µg/mL, the MIC [17] was > 32 µg/mL and the MIC [18] was 0.125 µg/mL (≈ 0.148 µM). The MIC [19] was > 32 µg/mL, the MIC [20] was > 32 µg/mL and the MIC [21] was > 32 µg/mL. The MIC [22] was 8 µg/mL, the MIC [23] was > 32 µg/mL and the MIC [24] was 16 µg/mL (≈ 19 µM). For the same compound, the MIC [25] was < 0.0312 µg/mL, the MIC [26] was > 32 µg/mL and the MIC [27] was > 32 µg/mL. The MIC [28] was < 0.0312 µg/mL.
